Experimental data reported in patent US4902720A (priority 1988, dated 1990).
Like-named read-outs stand apart in the source and are kept apart here.

What was measured:
HSV-1 (F strain) [1] = details: for % plaque inhibition: drug added after inoculation; for appearance of cell layer / % plaque inhibition A: Exp. 1D; for appearance of cell layer: after virus adsorption, thin = attached but monolayer not confluent; for % plaque inhibition A: drug added after virus adsorption
HSV-2 (333 strain) = details: for % plaque inhibition: 2 hours pre-incubation
Protocol: In Series No. 1 of Example No. 1, monolayer cultures of Vero, RK-13 (rabbit kidney), and WISH (human amnion, Hayflick) cells were used in the experiments of Example No. 1. The cells were grown in Basal Minimal Eagle's Media supplemented with 5% fetal calf serum, 1% glutamine, sodium bicarbote and antibiotics. Cultures were maintained in a maintenance media that was the same media, except that the maintenance media contained 2% fetal calf serum. An F Strain of HSV-1 was chosen because it is a well-known prototype of HSV-1. This F Strain can be obtained from the American Type Culture Collection (ATCC), 12301 Parklawn Drive, Rockville, MD 20852, at which it is identified as ATC-VR 733. For studies with HSV-2, a G strain of HSV-2 (ATCC-VR 734) and a 333 strain of HSV-2 were selected. These strains also can be obtained from the ATCC.
Two methods were used to test the drug's effectiveness in the suppression of viral growth. In the pre-inoculation experiments, the drug was added after adsorption of the virus. In the pre-incubation experiments, the drug was added prior to infection of the cell cultures.
Accordingly, the pre-inoculation experiments measured the effect of the drug on a cell that was already infected with the virus. The pre-incubation experiments measured the cell cultures that were treated with the drug prior to the inoculation to determine if these cells then would be permissive or non-permissive to the tested virus. In these experiments, plaque reduction assays provided a quantitative measure of antiviral activity and was deemed to be reliable and objective.
In the pre-incubation experiments, the media was either decanted or gently aspirated from the cultures. After decanting or aspirating, 1 ml of the drug dilution plus maintenance media was added to the cultures. The cultures that served as virus controls or cell controls received 2 ml of maintenance media. After the pre-treatment period, the media was again aspirated and the cell cultures were infected with the virus.
When this occurred, the cultures were fixed and stained with crystal violet. The plaque were then carefully counted under the microscope. By such a counting and careful comparison, percentages of plaque inhibition in the treated cultures were then calculated.
The 333 strain, which can be obtained from ATCC, was used.

HSV-1 (F strain) [2] = details: for % plaque inhibition B: Exp. 1D
[3] = test system: RK-13, Vero cells, and WISH cells; details: cultures with vs without TEAC
Protocol: To determine the toxicity level of the drug, all three cell lines--RK-13, Vero cells, and WISH cells--were used. In the toxicity experiments, the effect of the drug on the uninfected cell for a range of periods of time was determined. Accordingly, cultures were incubated with and without the drug. The time of exposure was from one to seven hours. A comparison was then made between the drug treated cultures and the control cultures. After each period of incubation, the cells were washed and fresh media was added to the cells. The cell viability was then determined by dividing these cultures and having them grow into new cell cultures.

HSV-1 and HSV-2 = format: cell-based

CC[N+](CC)(CC)CC.[Cl-] [TEAC, tetraethylammonium chloride]
antiviral activity (HSV-1 (F strain) [1]; Exp. 1C, all dilutions tested): Antiviral activity was seen in all dilutions tested
% plaque inhibition (HSV-1 (F strain) [1]; Exp. 1C, 0.62 mg/culture): 30%
% plaque inhibition (HSV-1 (F strain) [1]; Exp. 1C, 1.25 mg/culture): 39%
% plaque inhibition (HSV-1 (F strain) [1]; Exp. 1C, 2.50 mg/culture): 46%
% plaque inhibition (HSV-1 (F strain) [1]; Exp. 1C, 5.00 mg/culture): 45%
% plaque inhibition (HSV-1 (F strain) [1]; Exp. 1C, 10.00 mg/culture): 56%
appearance of cell layer (HSV-1 (F strain) [1]; 25 mg/culture): thin
appearance of cell layer (HSV-1 (F strain) [1]; 50 mg/culture): thin
% plaque inhibition A (HSV-1 (F strain) [1]; 6.2 mg/culture): 20%
% plaque inhibition A (HSV-1 (F strain) [1]; 12.5 mg/culture): 62%
% plaque inhibition A (HSV-1 (F strain) [1]; 25.0 mg/culture, cell layer thin): 100%
% plaque inhibition A (HSV-1 (F strain) [1]; 50.0 mg/culture, cell layer thin): 100%
% plaque inhibition (HSV-2 (333 strain); 6.25 mg/culture): 0%
% plaque inhibition (HSV-2 (333 strain); 12.50 mg/culture): 25%
% plaque inhibition (HSV-2 (333 strain); 25.00 mg/culture): 42%
% plaque inhibition (HSV-2 (333 strain); 50.00 mg/culture): 56%
sensitivity of HSV-2 (333 strain) to TEAC vs HSV-1 (HSV-2 (333 strain); based on Table 6): even more sensitive to TEAC than HSV-1
% plaque inhibition (HSV-1 (F strain) [2]; Exp. 1C, 3 hours pre-incubation, 2.5 mg/culture): 10%
% plaque inhibition (HSV-1 (F strain) [2]; Exp. 1C, 3 hours pre-incubation, 5.0 mg/culture): 22%
% plaque inhibition (HSV-1 (F strain) [2]; Exp. 1C, 3 hours pre-incubation, 10.0 mg/culture): 71%
% plaque inhibition B (HSV-1 (F strain) [2]; 3 hours pre-incubation, 12.5 mg/culture): 80%
% plaque inhibition B (HSV-1 (F strain) [2]; 3 hours pre-incubation, 25.0 mg/culture): 79%
% plaque inhibition B (HSV-1 (F strain) [2]; 3 hours pre-incubation, 50.0 mg/culture): 82%
% plaque inhibition B (HSV-1 (F strain) [2]; 3 hours pre-incubation, 100.0 mg/culture): 79%
% plaque inhibition (HSV-1 (F strain) [2]; Exp. 1E, 2 hours pre-incubation, 6.25 mg/culture): 0%
% plaque inhibition (HSV-1 (F strain) [2]; Exp. 1E, 2 hours pre-incubation, 12.50 mg/culture): 18%
% plaque inhibition (HSV-1 (F strain) [2]; Exp. 1E, 2 hours pre-incubation, 25.00 mg/culture): 17%
% plaque inhibition (HSV-1 (F strain) [2]; Exp. 1E, 2 hours pre-incubation, 50.00 mg/culture): 24%
% plaque inhibition (HSV-1 (F strain) [2]; Exp. 1E, 2 hours pre-incubation, 100.00 mg/culture): 68%
% plaque inhibition (HSV-1 (F strain) [2]; Exp. 1E, 4 hours pre-incubation, 6.25 mg/culture): less than 20%
% plaque inhibition (HSV-1 (F strain) [2]; Exp. 1E, 4 hours pre-incubation, 12.50 mg/culture): less than 20%
% plaque inhibition (HSV-1 (F strain) [2]; Exp. 1E, 4 hours pre-incubation, 25.00 mg/culture): 37.5%
% plaque inhibition (HSV-1 (F strain) [2]; Exp. 1E, 4 hours pre-incubation, 50.00 mg/culture): 63%
appearance of cell layer (HSV-1 (F strain) [2]; Exp. 1E, 4 hours pre-incubation, 100.00 mg/culture): thin
% plaque inhibition (HSV-1 (F strain) [2]; Exp. 1E, 4 hours pre-incubation, 100.00 mg/culture, cell layer thin): 100%
% plaque inhibition (HSV-1 (F strain) [2]; Exp. 1E, 7 hours pre-incubation, 6.25 mg/culture): 50%
% plaque inhibition (HSV-1 (F strain) [2]; Exp. 1E, 7 hours pre-incubation, 12.50 mg/culture): 76%
% plaque inhibition (HSV-1 (F strain) [2]; Exp. 1E, 7 hours pre-incubation, 25.00 mg/culture): 96.5%
% plaque inhibition (HSV-1 (F strain) [2]; Exp. 1E, 7 hours pre-incubation, 50.00 mg/culture): 95.7%
appearance of cell layer (HSV-1 (F strain) [2]; Exp. 1E, 7 hours pre-incubation, 100.00 mg/culture): thin
% plaque inhibition (HSV-1 (F strain) [2]; Exp. 1E, 7 hours pre-incubation, 100.00 mg/culture, cell layer thin): 100%
rate of growth vs cultures without TEAC [3]: no difference in the rate of growth
permissiveness of cells to virus (HSV-1 and HSV-2; TEAC added before viral inoculation, time and dosage dependent): rendered the cells non-permissive to the virus and no plaque formed
in vitro replication of HSV-1 and HSV-2 (HSV-1 and HSV-2; summary): inhibited the in vitro replication of HSV-1 and HSV-2
plaque number and size (HSV-1 and HSV-2; summary): not only by the reduced number of plaque, but also by their reduced size
change in the morphology of the cells (Vero and WISH cells; 5 mg, 2.5 mg and 1.25 mg TEAC per culture, overnight): No change in the morphology of the cells
growth or general appearance vs untreated controls (Vero and WISH cells; after wash, additional 24 hours in fresh medium): no apparent difference in the growth or general appearance
sciatic pain (HSV type 2; Patient A, 2.8 cc (100 mg/cc), first infusion, immediately after): cessation of sciatic pain
pain or lesions (HSV type 2; Patient A, about five weeks after third infusion 3.4 cc): no further pain or lesions
time without lesions or pain (HSV type 2; Patient A, after first infusion): 52 to 53 days
time until spots were gone (HSV type 2; Patient A, after third infusion): 24 h
symptoms (HSV type 2; Patient A, approximately three weeks after first infusion): asymptomatic
lesions or pain at last contact (HSV type 2; Patient A, eighteen months after the initial exam): no further lesions or pain
time to disappearance of vesicles (HSV type 2; Patient A, recurrence after first infusion): two to three
sciatic nerve pain (HSV type 2; Patient A, second infusion 3.2 cc): sciatic nerve pain disappeared during the infusion
clearance (HSV type 2; Patient E, a week after second infusion, 2 pinpoint lesions remaining): 99%
new pinpoint lesions (HSV type 2; Patient E, after third infusion): 5-6 pinpoint lesions
lesions (HSV type 2; Patient E, third infusion 5 cc, 5 days later): all lesions had cleared up
general condition (HSV type 2; Patient F, about 3 weeks after third infusion): completely cleared up
lesion (HSV type 2; Patient F, first infusion 3.8 cc, next day): improved
time to clearing of lesion (HSV type 2; Patient F, second infusion 4.5 cc): 48 h
time to clearing of lesions (HSV type 2; Patient F, third infusion 4.0 cc): ≤ 4 days
time until lesions were gone (HSV type 2; Patient G, first infusion 4.3 cc): ≤ 48 h
long term outcome (HSV type 2; Patient J, 12 months later, ointment): the problem has resolved itself completely
severity of subsequent attacks (HSV type 2; Patient K, after second infusion): milder severity
anticipated massive attack (HSV type 2; Patient K, second infusion 3.4 cc, six weeks later): the attack had not occurred
